“And” between values parts separate entries of the source, which are not always exact repeats. Identical values can stand only once.
How the values were obtained:
[1] = system: Enterococcus faecium DSM20477; assay: Antibacterial activity (MIC, curve fitting); assay type: cell-based; conditions: for MIC, E.f.: Table 2, Enterococcus faecium DSM20477, 18 h, 37 °C; for MIC, E. faecium: Table S12, ± standard error of the mean
Protocol: (§1) The antibacterial activity of all gold complexes was assessed against six pathogenic bacterial strains, including two Gram-positive species, i.e. Enterococcus faecium and methicillin-resistant Staphylococcus aureus (MRSA), and four Gram-negative species, i.e. Acinetobacter baumannii, Escherichia coli, Klebsiella pneumoniae, and Pseudomonas aeruginosa. Minimum inhibitory concentrations (MICs) were determined using a curve-fitting technique.
(§2) S2.1. Antibacterial Studies
(§3) Bacterial cultures were prepared by overnight aerobic incubation at 37 °C. Gram-negative strains were cultivated in Müller Hinton broth supplemented with 1% glucose at pH 7.2, while Gram-positive strains were grown in Trypticase soy yeast extract medium (TSY) with a composition of 30 g/l trypticase soy broth, 3 g/l yeast extract, and pH 7.2. The cultures were adjusted to an OD600 of 0.001, resulting in a final starting OD600 of 0.0005 for the subsequent tests. For testing, 25 μL of the prepared culture was combined with 25 μL of serially diluted test compounds in 384 well plates, following established protocols for different strains. Screening was performed at compound concentrations of 0.5, 5, and 50 µM, and for selected compounds, growth inhibition curves were recorded using DMSO stock solutions […]
(§4) Positive control compounds, namely linezolid (for MRSA strains), ciprofloxacin (for E. faecium and E. coli), and amikacin (for P. aeruginosa), were included. The maximum DMSO concentration in the assay […]
(§5) After an 18-hour incubation at 37 °C under moist conditions, the optical density at 600 nm was measured using a Fusion Universal Microplate Analyser (Perkin–Elmer, Waltham, USA). The minimum inhibitory concentration (MIC) values, representing the […]
(§6) fitting with Sigma Plot. The bacterial strains used included Gram-negative strains: Escherichia coli (DSM 1116), A. baumannii (DSM30007), K. pneumoniae (DSM111678), and Pseudomonas aeruginosa PA7 (DSM 24068); and Gram-positive strains: E. faecium (DSM20477) and Staphylococcus aureus MRSA

[2] = system: Pseudomonas aeruginosa DSM 24068; assay: Antibacterial activity (MIC, curve fitting); assay type: cell-based; conditions: for MIC, P.a.: Table 2, Pseudomonas aeruginosa DSM 24068, 18 h, 37 °C; for MIC, P. aeruginosa: Table S12, ± standard error of the mean
Protocol: as §1, §2, §3, §4, §5, §6

[3] = system: Escherichia coli DSM 1116; assay: Antibacterial activity (MIC, curve fitting); assay type: cell-based; conditions: for MIC, E.c.: Table 2, Escherichia coli DSM 1116, 18 h, 37 °C; for MIC, E. coli: Table S12, ± standard error of the mean
Protocol: as §1, §2, §3, §4, §5, §6

[4] = system: Acinetobacter baumannii DSM30007; assay: Antibacterial activity (MIC, curve fitting); assay type: cell-based; conditions: for MIC, A.b.: Table 2, Acinetobacter baumannii DSM30007, 18 h, 37 °C; for MIC, A. baumannii: Table S12, ± standard error of the mean
Protocol: as §1, §2, §3, §4, §5, §6

[5] = system: Klebsiella pneumoniae DSM111678; assay: Antibacterial activity (MIC, curve fitting); assay type: cell-based; conditions: for MIC, K.p.: Table 2, Klebsiella pneumoniae DSM111678, 18 h, 37 °C; for MIC, K. pneumoniae: Table S12, ± standard error of the mean
Protocol: as §1, §2, §3, §4, §5, §6

[6] = system: methicillin-resistant Staphylococcus aureus DSM 11822; assay: Antibacterial activity (MIC, curve fitting); assay type: cell-based
Protocol: as §1, §2, §3, §4, §5, §6

[7] = system: Vero E6 African green monkey kidney cells; assay: Antiproliferative activity in non-tumour reference cell line; assay type: cell-based; conditions: for IC50: Vero E6 non-tumour reference cell line, SD in parentheses, n = 3
Protocol: (§7) The antiproliferative potential of the gold–NHC complexes was determined in A549 lung carcinoma cells, MDA-MB-231 breast cancer cells, MCF-7 breast adenocarcinoma cells, and HT-29 colon carcinoma cells (Table 1). Vero E6 African green monkey kidney cells served as a reference cell line to check for possible tumour selectivity. Auranofin (AF) was used as an established reference drug.[15,17] […]
(§8) S2.2. Cytotoxicity and Anticancer Studies
(§9) Cell culture and cytotoxicity
(§10) Cell lines were sourced from DSMZ (German Collection of Microorganisms and Cell Cultures GmbH) and maintained through standard procedures in Dulbecco's Modified Eagle Medium (DMEM) supplemented with 10% fetal calf serum and 50 mg/L gentamycin. Antiproliferative effects were assessed using a well-established assay protocol. In brief, 100 μL volumes of A549 cells (13,243 cells per mL), HT-29 cells (14,657 cells per mL), MDA-MB-231 cells (6,613 cells per mL), or MCF-7 cells (6,917 cells per mL) were transferred into the wells of 96-well plates and incubated at 37°C/5% CO2 for 72 […]
(§11) Freshly prepared stock solutions of the compounds in DMSO were diluted with the respective cell culture medium to achieve graded concentrations (final concentration of DMSO: 0.1% v/v). After 72 hours (A549, HT-29) or 96 hours (MCF-7, MDA-MB-231) of exposure, the cell biomass was assessed through crystal violet staining, and the IC50 value was determined as the concentration causing 50% inhibition of cell proliferation compared to an untreated control. Results were calculated as the mean values of three independent experiments.

[8] = molecular target: TrxR from E. coli (Escherichia coli, UniProt P0A9P4); assay: Inhibition of isolated bacterial TrxR, DTNB-based assay; assay type: biochemical; parameters: purchased Sigma-Aldrich; conditions: for TrxR activity, % of control: compounds at 0.5 µM, n = 2, Table S13; for IC50: isolated E. coli TrxR, DTNB assay, ± standard deviation, n = 3
Protocol: The inhibition of isolated TrxR from E. coli was determined for the selected monocarbene gold(I/III) complexes 2a–c and 4b–c using a DTNB-based assay (Table 3). […] The inhibition of bacterial TrxR for compound 2a was investigated in our previous report (Table 3).
S2.3. Inhibition of bacterial TrxR from E. coli
The TrxR (E. coli) inhibition assay was performed according to previously published procedures.[8] The assay is partly based on the procedure developed by Lu et al[9] and makes use of the reduction of DTNB (5,5′-dithiobis-(2-nitrobenzoic acid)). Solutions of E. coli TrxR (10.1 U/mL) and E. coli thioredoxin (Trx) (312 μg/mL) (both purchased from Sigma-Aldrich) were prepared in distilled water. Stock solutions of the test compounds (2 mM) were prepared in DMSO and serially diluted with TE buffer (Tris-HCl 50 mM, EDTA 1 mM, pH 7.5). 20 μL of these solutions or TE buffer without the test compounds (positive control) were mixed with the TrxR solution (10 μL), the Trx solution (10 μL) and 100 µl of NADPH (200 μM) in TE buffer in a well on a 96-well plate. As a blank control, 200 μM NADPH in TE buffer (100 μL) mixed with a DMSO / buffer mixture (40 μL) was used (final concentrations of DMSO: 0.5% v/v). The plate was incubated for 75 min at 25°C with moderate shaking. After incubation, 100 μL of a reaction mixture (TE buffer containing 200 μM NADPH and 5 mM DTNB) was added to each well to initiate the reaction. After thorough mixing, the formation of 5-TNB was monitored by a microplate reader at 405 nm in 35 s intervals (10 measurements). The values were corrected by subtraction of the blank solution absorption values. The increase in concentration of 5-TNB followed a linear trend (r2≥ 0.990) and the enzymatic activities were calculated as the gradients (increase in absorbance per second) thereof. […]
for each test compound, where the highest test compound concentration was used and the enzyme solution was replaced by TE buffer. The inhibition is presented as the mean IC50 values and standard deviations obtained in three independent experiments.
Table S13. Activity of TrxR from E. coli in presence of compounds at 0.5 µM (n = 2, n.d.= not

[9] = system: HT-29 colon carcinoma cells; assay: Antiproliferative activity, crystal violet assay; assay type: cell-based; conditions: 72 h exposure, SD in parentheses, n = 3
Protocol: as §7, §8, §9, §10, §11

[10] = system: A549 lung carcinoma cells; assay: Antiproliferative activity, crystal violet assay; assay type: cell-based; conditions: 72 h exposure, SD in parentheses, n = 3
Protocol: as §7, §8, §9, §10, §11

[11] = system: MCF-7 breast adenocarcinoma cells; assay: Antiproliferative activity, crystal violet assay; assay type: cell-based; conditions: 96 h exposure, SD in parentheses, n = 3
Protocol: as §7, §8, §9, §10, §11

[12] = system: MDA-MB-231 breast cancer cells; assay: Antiproliferative activity, crystal violet assay; assay type: cell-based; conditions: 96 h exposure, SD in parentheses, n = 3
Protocol: as §7, §8, §9, §10, §11

[13] = Table 2, MRSA DSM 11822, 18 h, 37 °C
[14] = Table S12, ± standard error of the mean

Chain of TrxR from E. coli (P0A9P4 2-321): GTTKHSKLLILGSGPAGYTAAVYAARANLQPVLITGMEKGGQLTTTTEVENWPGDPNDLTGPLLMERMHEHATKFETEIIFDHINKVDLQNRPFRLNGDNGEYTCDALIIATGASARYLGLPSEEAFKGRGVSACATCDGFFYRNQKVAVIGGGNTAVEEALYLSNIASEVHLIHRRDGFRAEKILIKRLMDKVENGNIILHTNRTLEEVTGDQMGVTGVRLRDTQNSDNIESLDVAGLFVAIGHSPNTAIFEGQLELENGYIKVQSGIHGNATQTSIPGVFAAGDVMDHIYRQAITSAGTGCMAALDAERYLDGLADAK

## Cn1cc(C(=O)O)[n+](C)[c]1[Au-]([Cl])([Cl])[Cl] [4a]
[1]
  MIC, E.f.: >100 µM
  MIC, E. faecium: > 100 µM
[2]
  MIC, P.a.: >100 µM
  MIC, P. aeruginosa: > 100 µM
[3]
  MIC, E.c.: 72 ± 0 µM
  MIC, E. coli: 72.16 ± 0 µM
[4]
  MIC, A.b.: 36 ± 3 µM
  MIC, A. baumannii: 36.08 ± 2.83 µM
[5]
  MIC, K.p.: 36 ± 6 µM
  MIC, K. pneumoniae: 36.08 ± 5.67 µM
[6]; [13]
  MIC, MRSA: >100 µM
[6]; [14]
  MIC, MRSA: > 100 µM
[7]
  IC50: 42.4 µM
[8]
  TrxR activity, % of control: 86.1 % of control
[9]
  IC50: > 90 µM
[10]
  IC50: 36.1 µM
[11]
  IC50: 47.8 µM
[12]
  IC50: 31.8 µM

## COC(=O)c1cn(C)[c]([Au-][c]2n(C)cc(C(=O)OC)[n+]2C)[n+]1C.O=S(=O)([O-])C(F)(F)F [3b]
[1]
  MIC, E. faecium: > 100 µM
[2]
  MIC, P. aeruginosa: > 100 µM
[3]
  MIC, E. coli: > 100 µM
[4]
  MIC, A. baumannii: > 100 µM
[5]
  MIC, K. pneumoniae: > 100 µM
[6]; [14]
  MIC, MRSA: > 100 µM
[7]
  IC50: > 100 µM
[7]; comparison of IC50 in tumour cell lines and non-tumour Vero E6
  Tumour selectivity: tumour cell lines in comparison to Vero E6: clear preference for the tumour cell lines
[8]
  TrxR activity, % of control: 106 % of control
[9]
  IC50: 27.7 µM
[10]
  IC50: 5.21 µM
[11]
  IC50: 34.4 µM
[12]
  IC50: 19.2 µM

## CCOC(=O)c1cn(C)[c]([Au-][Cl])[n+]1C [2c]
[1]
  MIC, E.f.: 10 µM and 10 ± 0 µM
  MIC, E. faecium: 9.98 ± 0 µM
[2]
  MIC, P.a.: >100 µM
  MIC, P. aeruginosa: > 100 µM
[3]
  MIC, E.c.: 40 µM and 40 ± 0 µM
  MIC, E. coli: 39.94 ± 0 µM
[4]
  MIC, A.b.: 10 µM and 10 ± 2 µM
  MIC, A. baumannii: 9.98 ± 2.07 µM
[5]
  MIC, K.p.: 40 µM and 40 ± 0 µM
  MIC, K. pneumoniae: 39.94 ± 0 µM
[6]; [13]
  MIC, MRSA: 10 µM and 10 ± 0 µM
[6]; [14]
  MIC, MRSA: 9.98 ± 0 µM
[7]
  IC50: 13.1 µM
[8]
  TrxR activity, % of control: 13.8 % of control
  IC50: 0.133 ± 0.044 µM
[9]
  IC50: 22.1 µM
[10]
  IC50: 10.4 µM
[11]
  IC50: 9.93 µM
[12]
  IC50: 8.9 µM

## COC(=O)c1cn(C)[c]([Au-]([Cl])([Cl])[Cl])[n+]1C [4b]
[1]
  MIC, E.f.: 17 µM and 17 ± 0 µM
  MIC, E. faecium: 17.49 ± 0 µM
[2]
  MIC, P.a.: >100 µM
  MIC, P. aeruginosa: > 100 µM
[3]
  MIC, E.c.: 35 µM and 35 ± 0 µM
  MIC, E. coli: 34.97 ± 0 µM
[4]
  MIC, A.b.: 9 µM and 9 ± 2 µM
  MIC, A. baumannii: 8.74 ± 1.82 µM
[5]
  MIC, K.p.: 35 µM and 35 ± 0 µM
  MIC, K. pneumoniae: 34.97 ± 0 µM
[6]; [13]
  MIC, MRSA: 17 µM and 17 ± 0 µM
[6]; [14]
  MIC, MRSA: 17.49 ± 0 µM
[7]
  IC50: 22.2 µM
[8]
  TrxR activity, % of control: 36.5 % of control
  IC50: 0.362 ± 0.033 µM
[9]
  IC50: 26.2 µM
[10]
  IC50: 17.7 µM
[11]
  IC50: 15.2 µM
[12]
  IC50: 15.2 µM

Reference: paper PMC11342128, “Gold(I) and gold(III) carbene complexes from the marine betaine norzooanemonin: inhibition of thioredoxin reductase, antiproliferative and antimicrobial activity” (RSC Medicinal Chemistry, 2024)
